ChEMBL document CHEMBL3217673, “Synthesis of cyanine dyes and investigation of their in vitro antiprotozoal activities” (Medchemcomm, 2012)

Tests used:
[1] = Selectivity index, ratio of IC50 for rat L6 cells to IC50 for Trypanosoma brucei rhodesiense STIB900; type: toxicity, cell-based; conditions: read-out: Ratio IC50
[2] = Selectivity index, ratio of IC50 for rat L6 cells to IC50 for chloroquine and pyrimethamine-resistant Plasmodium falciparum K1; type: toxicity, cell-based; conditions: read-out: Ratio IC50
Plasmodium falciparum = assay: Antiprotozoal activity against chloroquine and pyrimethamine-resistant Plasmodium falciparum K1; type: functional, organism-based
Leishmania donovani = assay: Antiprotozoal activity against Leishmania donovani MHOMET-67/L82; type: functional, organism-based
L6 = assay: Cytotoxicity against rat L6 cells; type: cell-based
Trypanosoma cruzi = assay: Antiprotozoal activity against Trypanosoma cruzi Tulahuen C2C4; type: functional, organism-based
[3] = Selectivity index, ratio of IC50 for rat L6 cells to IC50 for Leishmania donovani MHOMET-67/L82; type: toxicity, cell-based; conditions: read-out: Ratio IC50
[4] = Selectivity index, ratio of IC50 for rat L6 cells to IC50 for Trypanosoma cruzi Tulahuen C2C4; type: toxicity, cell-based; conditions: read-out: Ratio IC50
[5] = system: Trypanosoma brucei rhodesiense; assay: Antiprotozoal activity against Trypanosoma brucei rhodesiense STIB900; type: functional, organism-based

| SMILES | selectivity ratio [1] | selectivity ratio [2] | IC50 (Plasmodium falciparum) | IC50 (Leishmania donovani) | IC50 (L6) | IC50 (Trypanosoma cruzi) | selectivity ratio [3] | selectivity ratio [4] | IC50 [5] |
| --- | --- | --- | --- | --- | --- | --- | --- | --- | --- |
| CN1/C(=C/C=C/c2oc3ccccc3[n+]2C)Oc2ccccc21 | 5.3 | 98.5 | 38 nM | 211 nM | 3760 nM | 106 nM | 17.8 | 35.6 | 707 nM |
| Cc1ccc2c(c1)N(C)/C(=C/C=C/c1oc3ccccc3[n+]1C)O2 | 23.8 | 12.6 | 90 nM | 22 nM | 1140 nM | 19 nM | 50.5 | 57.7 | 48 nM |
| Cc1ccc2c(c1)N(C)/C(=C/C=C/c1oc3ccc(C)cc3[n+]1C)O2 | 4.3 | 17 | 14 nM | 5 nM | 230 nM | – | 42.5 | – | 54 nM |
| CN1/C(=C/C=C/c2oc3ccccc3[n+]2C)Oc2ccc(Cl)cc21 | 4.1 | 25.8 | 925 nM | 1460 nM | 23900 nM | 7750 nM | 16.3 | 3.1 | 5840 nM |
| Cc1ccc2oc(/C=C/C=C3\Oc4ccc(Cl)cc4N3C)[n+](C)c2c1 | 55.7 | 16.2 | 468 nM | 110 nM | 7580 nM | 1370 nM | 68.6 | 5.5 | 136 nM |
| CN1/C(=C/C=C/c2oc3ccc(Cl)cc3[n+]2C)Oc2ccc(Cl)cc21 | 6.9 | 6 | 6030 nM | 5320 nM | 35900 nM | 47800 nM | 6.7 | 0.8 | 5200 nM |
| CN1/C(=C/C=C/c2oc3ccccc3[n+]2C)Sc2ccccc21 | 4.6 | 303 | 2 nM | 90 nM | 849 nM | 11 nM | 9.5 | 75.8 | 185 nM |
| Cc1ccc2c(c1)N(C)/C(=C/C=C/c1oc3ccccc3[n+]1C)S2 | 1.3 | 13.5 | 11 nM | 14 nM | 146 nM | – | 10.8 | – | 113 nM |
| Cc1ccc2oc(/C=C/C=C3\Sc4ccccc4N3C)[n+](C)c2c1 | 0.2 | 7.5 | 16 nM | 40 nM | 121 nM | – | 3 | – | 496 nM |
| Cc1ccc2c(c1)N(C)/C(=C/C=C/c1oc3ccc(C)cc3[n+]1C)S2 | 2.4 | 12 | 8 nM | 10 nM | 94 nM | – | 9 | – | 39 nM |
| CN1/C(=C/C=C/c2oc3ccc(Cl)cc3[n+]2C)Sc2ccccc21 | 266 | 166 | 20 nM | 61 nM | 3400 nM | 284 nM | 55.4 | 12 | 13 nM |
| Cc1ccc2oc(/C=C/C=C3\Sc4ccc(Cl)cc4N3C)[n+](C)c2c1 | 19.2 | 60 | 20 nM | 89 nM | 1180 nM | 109 nM | 13.3 | 10.9 | 62 nM |
| CN1/C(=C/C=C/c2oc3ccccc3[n+]2C)Sc2ccc(Cl)cc21 | 8.6 | 178 | 13 nM | 120 nM | 2280 nM | 355 nM | 19 | 6.4 | 266 nM |
| CN1/C(=C/C=C/c2oc3ccc(Cl)cc3[n+]2C)Sc2ccc(Cl)cc21 | 23.1 | 141 | 21 nM | 85 nM | 2980 nM | 2860 nM | 35.3 | 1 | 129 nM |
| CCN1/C(=C/C=C/c2oc3ccc(C)cc3[n+]2C)Sc2ccc(F)cc21 | 2.3 | 66 | 10 nM | 15 nM | 655 nM | 27 nM | 44 | 24 | 285 nM |
| Cc1ccc2oc(/C=C/C=C3\Sc4ccc(F)cc4N3C)[n+](C)c2c1 | 8.3 | 145 | 10 nM | 21 nM | 1490 nM | 8 nM | 72.6 | 194 | 180 nM |

| SMILES | selectivity ratio [1] | selectivity ratio [2] | IC50 (Plasmodium falciparum) | IC50 (Leishmania donovani) | IC50 (L6) | IC50 (Trypanosoma cruzi) | selectivity ratio [3] | selectivity ratio [4] | IC50 [5] |
| --- | --- | --- | --- | --- | --- | --- | --- | --- | --- |
| CCN1/C(=C/C=C/c2oc3ccc(Cl)cc3[n+]2C)Sc2ccc(F)cc21 | 3.6 | 218 | 14 nM | 106 nM | 3100 nM | 853 nM | 29.1 | 3.6 | 850 nM |
| CN1/C(=C/C=C/c2oc3ccccc3[n+]2C)Sc2ccc(F)cc21 | 1.2 | 201 | 5 nM | 67 nM | 1070 nM | 186 nM | 16.1 | 5.7 | 867 nM |
| CCN1/C(=C/C=C/c2oc3ccccc3[n+]2C)Sc2ccc(F)cc21 | 1.8 | 586 | 3 nM | 54 nM | 1510 nM | 262 nM | 27.9 | 5.7 | 841 nM |
| CN1/C(=C/C=C/c2sc3ccccc3[n+]2C)Sc2ccccc21 | 2.9 | 126 | 3 nM | 5 nM | 338 nM | 5 nM | 63 | 63 | 115 nM |
| CN1/C(=C/C=C/c2sc3ccccc3[n+]2C)Sc2ccc(Cl)cc21 | 5.2 | 45 | 7 nM | 64 nM | 331 nM | 7 nM | 5.2 | 45 | 64 nM |
| CN1/C(=C/C=C/c2sc3ccc(Cl)cc3[n+]2C)Sc2ccc(Cl)cc21 | 59.6 | 477 | 2 nM | 9 nM | 1080 nM | 7080 nM | 119 | 0.2 | 18 nM |
| CN1/C(=C/C=C/c2sc3ccccc3[n+]2C)Sc2ccc(F)cc21 | 1.2 | 94.5 | 5 nM | 79 nM | 483 nM | – | 6.1 | – | 394 nM |
| CCN1/C(=C/C=C/c2sc3ccccc3[n+]2C)Sc2ccc(F)cc21 | 0.5 | 32.3 | 7 nM | 111 nM | 240 nM | – | 2.2 | – | 452 nM |
| CN1/C(=C/C=C/c2sc3ccc(F)cc3[n+]2C)Sc2ccc(F)cc21 | 2.7 | 477 | 2 nM | 20 nM | 699 nM | 2910 nM | 35.8 | 0.2 | 262 nM |
| CCN1/C(=C/C=C/c2sc3ccc(F)cc3[n+]2CC)Sc2ccc(F)cc21 | 1.1 | 371 | 2 nM | 28 nM | 849 nM | 1170 nM | 30.9 | 0.7 | 769 nM |
| Cn1/c(=N/C=C/c2sc3ccccc3[n+]2C)sc2ccccc21 | 128 | 340 | 8 nM | 11 nM | 2730 nM | 16 nM | 255 | 170 | 21 nM |
| Cn1/c(=N/C=C/c2sc3ccc(Cl)cc3[n+]2C)sc2ccccc21 | 66.3 | 132 | 5 nM | 7 nM | 649 nM | 509 nM | 88.3 | 1.3 | 10 nM |
| Cn1/c(=N/C=C/c2sc3ccc(F)cc3[n+]2C)sc2ccccc21 | 15.8 | 153 | 38 nM | 31 nM | 5840 nM | 648 nM | 191 | 9 | 370 nM |
| Cn1/c(=N\N/C=C/c2sc3ccccc3[n+]2C)sc2ccccc21 | 5.5 | 3 | 7020 nM | 13100 nM | 21100 nM | 12400 nM | 1.6 | 1.7 | 3830 nM |
| Cn1/c(=N\N/C=C/c2sc3ccc(Cl)cc3[n+]2C)sc2ccccc21 | 3.6 | 4.2 | 2600 nM | 8340 nM | 10800 nM | 11400 nM | 1.3 | 1 | 2970 nM |
| Cn1/c(=N\N/C=C/c2sc3ccc(F)cc3[n+]2C)sc2ccccc21 | 3.5 | 2.5 | 6140 nM | 10200 nM | 15500 nM | 11800 nM | 1.5 | 1.3 | 4450 nM |
